Assay results as given in US20220257698A1, “ANGIOTENSIN TYPE 2 (AT2) RECEPTOR AGONISTS FOR USE IN THE TREATMENT OF CANCER” (LANTHIOPEP B.V., priority 2019, published 2022).

Columns and labels:
[1] = tested on: lung carcinoma PDX Lu7433; test: KcAng(1-7) on growth of lung carcinoma PDX Lu7433 in mice; type: in vivo, NMRI nu/nu mice (human PDX)
Method: (§1) In vivo studies were conducted at EPO GmbH Berlin. Large studies (FIG. 1A, 2, 3, 4, 5) comprised 3 groups of 10 mice/group and 5 animals as reserve, as outlined in Table 1. Smaller studies (FIG. 1B, 1C, 1D) comprised 2 groups of mice of 3 mice per group. The animals were allocated to the various treatment groups (e.g. 0.2 μg/kg and 30 μg/kg) with a maximum of 10 animals per group. […] The groups received subcutaneous (s.c.) drug injection (for max. 28 days) as outlined in the Table 1.
(§2) NMRI nu/nu mice were used in this study. The animals were female at age of 6 to 8 weeks. The respective PDX tumors were inoculated subcutaneously (s.c.), and the tumors were grown to achieve palpable tumor sizes before start of the respective treatments. The PDX included breast (MaCa4151), colon (Co9689A), head & neck (HN10309), lung (Lu7433) and ovarian (OvCa13329) cancer (Table 2).
(§3) Treatment with KcAng(1-7) was started with palpable tumors after the randomization of animals regarding tumor volume. KcAng(1-7) was applied s.c. by daily injections at […] or 30 μg/kg dose for a maximum of 28 days (or earlier as defined by the humane end point for the study).
(§4) KcAng(1-7) was prepared as follows: The compounds was suspended in sterile PBS resulting in a clear solution. The remains of this formulation were stored at 4° C.
(§5) Tumor growth stimulatory or inhibitory activity of the KcAng(1-7) was evaluated by determination of tumor volumes (TV). During the study, tumor volumes and body weight were measured twice a week, and the ratio of the mean tumor volumes between the compound-treated group and the vehicle-treated group (T/C) was calculated.
(§6) Tumor volume=(tumor width)×(tumor width)×(tumor length)+2
(§7) T/C=T÷C • T: Mean estimated tumor volume of the compound-treated group • C: Mean estimated tumor volume of the vehicle-treated group

[2] = tested on: MaCa4151 breast cancer PDX model; test: KcAng(1-7) on growth of breast carcinoma PDX MaCa4151 in mice; type: in vivo, NMRI nu/nu mice (human PDX)
Method: as §1, §2, §3, §4, §5, §6, §7

[3] = Gr. B 0.2 μg/kg/d s.c., Day 11 (Meas. 1)
[4] = Gr. B 0.2 μg/kg/d s.c., Day 14 (Meas. 2)
[5] = Gr. B 0.2 μg/kg/d s.c., Day 18 (Meas. 3)
[6] = Gr. B 0.2 μg/kg/d s.c., Day 21 (Meas. 4)
[7] = Gr. B 0.2 μg/kg/d s.c., Day 25 (Meas. 5)
[8] = Gr. B 0.2 μg/kg/d s.c., Day 28 (Meas. 6)
[9] = Gr. C 30 μg/kg/d s.c., Day 11 (Meas. 1)
[10] = Gr. C 30 μg/kg/d s.c., Day 14 (Meas. 2)
[11] = Gr. C 30 μg/kg/d s.c., Day 18 (Meas. 3)
[12] = Gr. C 30 μg/kg/d s.c., Day 21 (Meas. 4)
[13] = Gr. C 30 μg/kg/d s.c., Day 25 (Meas. 5)
[14] = Gr. C 30 μg/kg/d s.c., Day 28 (Meas. 6)
[15] = Gr. B 0.2 μg/kg/d s.c., Day 21 (Meas. 1)
[16] = Gr. B 0.2 μg/kg/d s.c., Day 23 (Meas. 2)
[17] = Gr. B 0.2 μg/kg/d s.c., Day 26 (Meas. 3)
[18] = Gr. B 0.2 μg/kg/d s.c., Day 29 (Meas. 4)
[19] = Gr. B 0.2 μg/kg/d s.c., Day 34 (Meas. 5)
[20] = Gr. B 0.2 μg/kg/d s.c., Day 37 (Meas. 6)
[21] = Gr. C 30 μg/kg/d s.c., Day 21 (Meas. 1)
[22] = Gr. C 30 μg/kg/d s.c., Day 23 (Meas. 2)
[23] = Gr. C 30 μg/kg/d s.c., Day 26 (Meas. 3)
[24] = Gr. C 30 μg/kg/d s.c., Day 29 (Meas. 4)
[25] = Gr. C 30 μg/kg/d s.c., Day 34 (Meas. 5)
[26] = Gr. C 30 μg/kg/d s.c., Day 37 (Meas. 6)

Substance: Lys-Asp-Arg-Val-Abu/Ala-Ile-His-Abu/Ala (KDRVAIHA; not fully specified; cyclic thioether (Abu/Ala bridge); VARIANT (5)..(5) /replace=“Abu”; VARIANT (8)..(8) /replace=“Abu”; SITE (1)..(8) /note=“Variant residues given in the sequence have no preference with respect to those in the annotations for variant positions”) [KcAng(1-7)]
- optT/C ([1]; 0.2 μg/kg): 68.2%
- optT/C ([1]; 30 μg/kg): 71.9%
- effect on tumor growth ([1]; 0.2 and 30 μg/kg, 19 days): moderate but significant decrease in tumor growth
- RTV Mean [1, 3]: 1
- RTV Median [1, 3]: 1
- T/C [1, 3]: 100.1%
- Tumor Vol. Mean [1, 3]: 0.112 cm^3
- Tumor Vol. Median [1, 3]: 0.109 cm^3
- RTV Mean [1, 4]: 1.7
- RTV Median [1, 4]: 1.8
- T/C [1, 4]: 88.4%
- Tumor Vol. Mean [1, 4]: 0.187 cm^3
- Tumor Vol. Median [1, 4]: 0.19 cm^3
- RTV Mean [1, 5]: 3.3
- RTV Median [1, 5]: 3.4
- T/C [1, 5]: 75.1%
- Tumor Vol. Mean [1, 5]: 0.373 cm^3
- Tumor Vol. Median [1, 5]: 0.412 cm^3
- RTV Mean [1, 6]: 4.2
- RTV Median [1, 6]: 4.3
- T/C [1, 6]: 75.3%
- Tumor Vol. Mean [1, 6]: 0.473 cm^3
- Tumor Vol. Median [1, 6]: 0.454 cm^3
- RTV Mean [1, 7]: 5.7
- RTV Median [1, 7]: 5.6
- T/C [1, 7]: 71%
- Tumor Vol. Mean [1, 7]: 0.643 cm^3
- Tumor Vol. Median [1, 7]: 0.625 cm^3
- RTV Mean [1, 8]: 7.6
- RTV Median [1, 8]: 8.1
- T/C [1, 8]: 68.2%
- Tumor Vol. Mean [1, 8]: 0.844 cm^3
- Tumor Vol. Median [1, 8]: 0.808 cm^3
- RTV Mean [1, 9]: 1
- RTV Median [1, 9]: 1
- T/C [1, 9]: 99.7%
- Tumor Vol. Mean [1, 9]: 0.112 cm^3
- Tumor Vol. Median [1, 9]: 0.099 cm^3
- RTV Mean [1, 10]: 1.6
- RTV Median [1, 10]: 1.6
- T/C [1, 10]: 85.1%
- Tumor Vol. Mean [1, 10]: 0.18 cm^3
- Tumor Vol. Median [1, 10]: 0.168 cm^3
- RTV Mean [1, 11]: 3.2
- RTV Median [1, 11]: 3.1
- T/C [1, 11]: 71.9%
- Tumor Vol. Mean [1, 11]: 0.357 cm^3
- Tumor Vol. Median [1, 11]: 0.376 cm^3
- RTV Mean [1, 12]: 4.3
- RTV Median [1, 12]: 4.1
- T/C [1, 12]: 75.1%
- Tumor Vol. Mean [1, 12]: 0.472 cm^3
- Tumor Vol. Median [1, 12]: 0.509 cm^3
- RTV Mean [1, 13]: 6.1
- RTV Median [1, 13]: 5.9
- T/C [1, 13]: 75.3%
- Tumor Vol. Mean [1, 13]: 0.682 cm^3
- Tumor Vol. Median [1, 13]: 0.719 cm^3
- RTV Mean [1, 14]: 8.2
- RTV Median [1, 14]: 8.2
- T/C [1, 14]: 73.7%
- Tumor Vol. Mean [1, 14]: 0.912 cm^3
- Tumor Vol. Median [1, 14]: 0.991 cm^3
- effect on tumor growth ([2]; 0.2 and 30 μg/kg, 17 days): did not resulted in an increase of tumor growth or reduced tumor growth
- RTV Mean [2, 15]: 1
- RTV Median [2, 15]: 1
- T/C [2, 15]: 95.7%
- Tumor Vol. Mean [2, 15]: 0.163 cm^3
- Tumor Vol. Median [2, 15]: 0.131 cm^3
- RTV Mean [2, 16]: 1.7
- RTV Median [2, 16]: 1.6
- T/C [2, 16]: 105.2%
- Tumor Vol. Mean [2, 16]: 0.281 cm^3
- Tumor Vol. Median [2, 16]: 0.241 cm^3
- RTV Mean [2, 17]: 2.4
- RTV Median [2, 17]: 2.2
- T/C [2, 17]: 118.4%
- Tumor Vol. Mean [2, 17]: 0.392 cm^3
- Tumor Vol. Median [2, 17]: 0.368 cm^3
- RTV Mean [2, 18]: 3.4
- RTV Median [2, 18]: 3.2
- T/C [2, 18]: 104.9%
- Tumor Vol. Mean [2, 18]: 0.55 cm^3
- Tumor Vol. Median [2, 18]: 0.491 cm^3
- RTV Mean [2, 19]: 6.2
- RTV Median [2, 19]: 5.2
- T/C [2, 19]: 120.2%
- Tumor Vol. Mean [2, 19]: 0.995 cm^3
- Tumor Vol. Median [2, 19]: 1.021 cm^3
- RTV Mean [2, 20]: 10.5
- RTV Median [2, 20]: 7.6
- T/C [2, 20]: 137%
- Tumor Vol. Mean [2, 20]: 1.607 cm^3
- Tumor Vol. Median [2, 20]: 1.452 cm^3
- RTV Mean [2, 21]: 1
- RTV Median [2, 21]: 1
- T/C [2, 21]: 94.8%
- Tumor Vol. Mean [2, 21]: 0.162 cm^3
- Tumor Vol. Median [2, 21]: 0.157 cm^3
- RTV Mean [2, 22]: 1.5
- RTV Median [2, 22]: 1.5
- T/C [2, 22]: 92.6%
- Tumor Vol. Mean [2, 22]: 0.248 cm^3
- Tumor Vol. Median [2, 22]: 0.165 cm^3
- RTV Mean [2, 23]: 2.4
- RTV Median [2, 23]: 2.5
- T/C [2, 23]: 122.3%
- Tumor Vol. Mean [2, 23]: 0.405 cm^3
- Tumor Vol. Median [2, 23]: 0.383 cm^3
- RTV Mean [2, 24]: 4
- RTV Median [2, 24]: 4
- T/C [2, 24]: 125%
- Tumor Vol. Mean [2, 24]: 0.655 cm^3
- Tumor Vol. Median [2, 24]: 0.671 cm^3
- RTV Mean [2, 25]: 6.8
- RTV Median [2, 25]: 6.5
- T/C [2, 25]: 130.6%
- Tumor Vol. Mean [2, 25]: 1.081 cm^3
- Tumor Vol. Median [2, 25]: 1.072 cm^3
- RTV Mean [2, 26]: 9.8
- RTV Median [2, 26]: 9.1
- T/C [2, 26]: 131.2%
- Tumor Vol. Mean [2, 26]: 1.539 cm^3
- Tumor Vol. Median [2, 26]: 1.522 cm^3
